Legend:
cGAS-STING = assay: Ethidium bromide mtDNA depletion, cGAS-STING activation in B16F10 cells; assay type: cell-based, mouse; conditions: wild-type B16F10, 100 ng/ml ethidium bromide 20 days, then 1 μM AZD1390 48 hr; FIG. 103
Description: (§1) Cells lysates were boiled in sodium dodecyl sulfate (SDS) sample loading buffer, resolved by 10% SDS-polyacrylamide gel electrophoresis (SDS-PAGE) and transferred to nitrocellulose. The membranes were blocked in 5% milk in Tris-buffered saline and Tween 20 (TBST; 10 mM Tris-HCl [pH 8.0], 150 mM NaCl, 0.1% Tween 20) for 1 hr at room temperature. After washing twice with TBST, the membranes were incubated with appropriate primary antibodies in BSA/TBST for overnight and then washed three times with TBST, probed with horseradish […] anti-immunoglobulin (1:5000 dilution) for 1 hr at room temperature. After three washes with TBST, immunoreacted products were visualized using enhanced chemiluminescence reagent and autoradiography.
A previously published protocol was used (White, M. J. et al. Cell (2014) doi:10.1016/j.cell1.2014.11.036). Vector control, ATM KO and wild-type B16 cells were cultured in Dulbecco's modified Eagle's medium (DMEM) with 10% FBS. About 100 ng/ml ethidium bromide was added to the medium for 20 days before the cells were harvested for experiments.
Total RNA was extracted from cells by use of RNeasy Mini Kit (Qiagen) according to manufacturer's instructions. […] Quantitative real-time PCR was performed using Quanti Test SYBR Green PCR Master Mix Kit (Qiagen). […]

[1] = system: mitochondrial DNA (mtDNA) release; assay: Q-PCR of mtDNA in digitonin cytosolic extracts of B16F10 cells; assay type: cell-based, mouse; conditions: 1 μM AZD1390 for 48 hours, FIGS. 59, 60
ATM kinase = ATM kinase (Homo sapiens, UniProt Q13315); conditions: Durant et al. Sci Adv 2018; cited from earlier work
B16F10 melanoma = assay: Tumor growth delay and survival, B16F10 melanoma in C57BL/6 mice; assay type: in vivo, mouse
Description: (§2) All animal experiments conducted in this study were approved by Duke University Institutional Animal Use and Care Committee. C57BL/6J and Balb/C, mice were purchased from The Jackson Laboratory. NSG mice were purchased from Division of Laboratory Animal Resources (DLAR) of Duke University. Prior to tumor cell injection, age-matched 6-8 weeks old mice were shaved at one of the flanks. Tumor cells were then injected into shaved flanks subcutaneously with Lenti-CRISPRv2 modified control or target gene-specific knockout tumor cells. Tumor volumes were measured every 2-3 days and calculated by the formula: […]. The mice were sacrificed when tumors reached 2000 mm^3.
(§3) For antibody treatments, mice were given 100 μg antibody via intraperitoneal (i.p.) injection at day 6, 9, 12 post tumor cells injection using following antibodies: anti-PD1 (clone 29F.1A12) or isotype (clone 2A3) from BioXCell.

ISGs = assay: qRT-PCR of ISGs in B16F10 cells; assay type: cell-based, mouse
Description: (§4) Total RNA was extracted from cells by use of RNeasy Mini Kit (Qiagen) according to manufacturer's instructions. RNA was subjected to cDNA synthesis with random hexamer primers using Superscript II reverse transcriptase (Invitrogen). Quantitative real-time PCR was performed using Quanti Test SYBR Green PCR Master Mix Kit (Qiagen). Primers used for different target genes are listed in the Sequences section herein.

p-TBK [2] = assay: Western blot of p-TBK in B16 cells; assay type: cell-based, mouse
Description: as §1

[3] = system: pro-inflammatory cytokine genes involved in cellular innate immunity; assay: Q-RT-PCR of cytokine mRNA in wild type 4T1 cells treated with ATM inhibitors; assay type: cell-based, mouse; conditions: FIG. 10
Description: as §4

4T1 tumor = assay: Tumor growth delay and survival, 4T1 tumors in Balb/c mice; assay type: in vivo; conditions: 4T1, Balb/c; anti-PD1 100 μg/mouse days 6, 9, 12 or AZD1390 10 mg/kg daily days 4-14; FIGS. 27, 28
Description: as §2, §3

glioma = conditions: preclinical models; Durant et al. Sci Adv 2018; cited from earlier work
p-TBK [4] = assay: Western blot of p-TBK in MDA-MB-231 cells; assay type: cell-based; conditions: human MDA-MB-231 cells, Ku55933 for 6 hours; FIG. 91
Description: as §1

Sequence of ATM kinase (Q13315 whole entry): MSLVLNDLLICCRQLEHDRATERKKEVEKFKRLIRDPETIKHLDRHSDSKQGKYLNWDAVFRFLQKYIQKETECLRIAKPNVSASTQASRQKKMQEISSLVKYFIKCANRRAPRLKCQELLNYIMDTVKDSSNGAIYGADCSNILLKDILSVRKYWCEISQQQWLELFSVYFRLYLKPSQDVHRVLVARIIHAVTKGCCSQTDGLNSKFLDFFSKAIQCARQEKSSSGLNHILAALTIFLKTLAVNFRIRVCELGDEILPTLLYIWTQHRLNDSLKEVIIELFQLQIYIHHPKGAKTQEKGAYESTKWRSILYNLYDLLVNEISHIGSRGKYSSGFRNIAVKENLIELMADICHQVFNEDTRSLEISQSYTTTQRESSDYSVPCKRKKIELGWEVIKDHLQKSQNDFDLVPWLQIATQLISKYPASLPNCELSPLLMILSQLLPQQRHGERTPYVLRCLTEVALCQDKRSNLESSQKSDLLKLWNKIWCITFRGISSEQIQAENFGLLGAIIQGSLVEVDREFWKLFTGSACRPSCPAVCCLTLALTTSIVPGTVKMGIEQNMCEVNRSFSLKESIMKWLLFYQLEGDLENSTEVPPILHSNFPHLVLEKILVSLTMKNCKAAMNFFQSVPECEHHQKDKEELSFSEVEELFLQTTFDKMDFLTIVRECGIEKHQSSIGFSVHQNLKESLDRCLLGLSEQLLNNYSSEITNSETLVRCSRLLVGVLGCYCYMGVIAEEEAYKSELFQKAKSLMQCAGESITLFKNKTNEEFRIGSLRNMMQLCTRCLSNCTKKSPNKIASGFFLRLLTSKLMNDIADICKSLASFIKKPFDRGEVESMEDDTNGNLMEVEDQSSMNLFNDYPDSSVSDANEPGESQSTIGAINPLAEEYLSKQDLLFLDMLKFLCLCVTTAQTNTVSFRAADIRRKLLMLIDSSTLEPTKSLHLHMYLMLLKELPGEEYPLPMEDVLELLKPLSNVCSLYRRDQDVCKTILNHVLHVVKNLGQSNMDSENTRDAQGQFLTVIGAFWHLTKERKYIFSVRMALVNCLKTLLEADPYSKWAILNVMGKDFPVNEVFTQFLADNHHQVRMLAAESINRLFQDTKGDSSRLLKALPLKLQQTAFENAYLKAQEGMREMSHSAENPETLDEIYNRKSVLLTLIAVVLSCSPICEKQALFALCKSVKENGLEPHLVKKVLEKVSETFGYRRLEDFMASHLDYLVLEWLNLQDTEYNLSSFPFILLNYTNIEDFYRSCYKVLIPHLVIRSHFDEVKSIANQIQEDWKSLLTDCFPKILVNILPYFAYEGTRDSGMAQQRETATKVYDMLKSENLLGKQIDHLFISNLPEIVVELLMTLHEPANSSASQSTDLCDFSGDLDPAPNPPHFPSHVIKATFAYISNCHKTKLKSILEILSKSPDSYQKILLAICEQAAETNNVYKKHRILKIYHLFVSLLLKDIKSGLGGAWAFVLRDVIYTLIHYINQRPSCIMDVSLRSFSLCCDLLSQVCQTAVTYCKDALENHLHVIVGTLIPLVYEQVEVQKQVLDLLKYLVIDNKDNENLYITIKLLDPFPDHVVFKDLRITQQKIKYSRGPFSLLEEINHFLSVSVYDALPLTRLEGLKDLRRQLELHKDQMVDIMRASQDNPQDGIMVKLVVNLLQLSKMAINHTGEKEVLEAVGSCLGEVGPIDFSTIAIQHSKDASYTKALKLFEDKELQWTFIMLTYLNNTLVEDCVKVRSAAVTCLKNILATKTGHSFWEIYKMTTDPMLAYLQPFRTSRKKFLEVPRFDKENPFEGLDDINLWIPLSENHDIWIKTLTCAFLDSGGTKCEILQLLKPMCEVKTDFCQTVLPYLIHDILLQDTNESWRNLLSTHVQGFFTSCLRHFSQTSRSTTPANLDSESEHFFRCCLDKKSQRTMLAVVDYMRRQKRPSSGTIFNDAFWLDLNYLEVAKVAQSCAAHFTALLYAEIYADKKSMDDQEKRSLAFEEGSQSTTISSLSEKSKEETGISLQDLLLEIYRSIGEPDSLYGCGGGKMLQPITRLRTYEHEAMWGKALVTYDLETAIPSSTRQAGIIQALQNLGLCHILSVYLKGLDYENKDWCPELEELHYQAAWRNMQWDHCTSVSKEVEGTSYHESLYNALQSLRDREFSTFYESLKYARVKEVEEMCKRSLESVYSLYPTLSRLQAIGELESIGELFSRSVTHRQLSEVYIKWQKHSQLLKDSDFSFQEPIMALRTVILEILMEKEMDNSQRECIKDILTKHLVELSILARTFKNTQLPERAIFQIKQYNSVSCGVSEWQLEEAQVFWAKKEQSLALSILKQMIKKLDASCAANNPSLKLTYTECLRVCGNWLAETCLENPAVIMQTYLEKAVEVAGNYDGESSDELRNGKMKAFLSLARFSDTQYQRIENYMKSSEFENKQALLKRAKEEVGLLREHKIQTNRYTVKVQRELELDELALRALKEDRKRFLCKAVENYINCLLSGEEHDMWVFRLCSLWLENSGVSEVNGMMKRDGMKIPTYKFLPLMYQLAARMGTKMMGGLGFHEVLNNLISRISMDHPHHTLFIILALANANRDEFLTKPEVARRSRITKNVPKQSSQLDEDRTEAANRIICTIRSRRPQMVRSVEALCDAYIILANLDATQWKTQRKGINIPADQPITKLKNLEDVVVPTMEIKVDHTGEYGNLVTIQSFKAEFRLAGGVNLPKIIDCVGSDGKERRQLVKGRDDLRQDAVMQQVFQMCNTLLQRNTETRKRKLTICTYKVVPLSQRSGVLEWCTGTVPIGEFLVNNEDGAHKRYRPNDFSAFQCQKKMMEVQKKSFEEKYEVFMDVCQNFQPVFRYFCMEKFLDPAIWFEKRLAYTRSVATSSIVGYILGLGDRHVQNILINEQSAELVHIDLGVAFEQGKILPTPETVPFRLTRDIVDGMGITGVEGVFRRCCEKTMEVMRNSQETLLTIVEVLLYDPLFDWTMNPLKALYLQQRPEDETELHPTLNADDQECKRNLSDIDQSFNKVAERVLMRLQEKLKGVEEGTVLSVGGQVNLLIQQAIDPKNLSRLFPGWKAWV

In the case of `CC(C)n1c(=O)n(C)c2cnc3cc(F)c(-c4ccc(OCCCN5CCCCC5)nc4)cc3c21` [AZD1390], the “cGAS-STING activation (pTBK) induced by AZD1390 after EtBr-induced depletion of mtDNA” value (cGAS-STING) is listed as “abrogated”, the “mitochondrial DNA (mtDNA) release” value [1] is listed as “induced mitochondrial DNA (mtDNA) release” and the “ATM kinase inhibitor character” value (ATM kinase) is listed as “potent and selective”. The “enhancement of anti-tumor efficacy of the anti-PD1 antibody” value (B16F10 melanoma; B16F10, C57BL/6, AZD1390 10 mg/kg daily days 4-14 plus anti-PD1 100 μg/mouse days 6, 9, 12, FIGS. 25, 26) was “significantly enhanced”, the “enhancement of tumor suppression mediated by an anti-PD1 antibody” value (B16F10 melanoma; B16F10 melanoma, anti-PD1 100 μg/mouse and AZD1390 2.5 mg/Kg, FIG. 11) was “significantly enhanced tumor suppression” and the “effect on tumor growth, single agent” value (B16F10 melanoma; B16F10 tumors, C57BL/6, AZD1390 alone 10 mg/kg daily days 4-14, FIG. 25) was “almost negligible effect”. The “expression of ISGs” value (ISGs; 1 μM AZD1390 for 48 hrs, FIG. 46) was “induced expression of ISGs”, the “phosphorylation of TBK” value (p-TBK [2]; AZD1390 at indicated concentrations for 48 hrs, FIG. 45) was “induced increased phosphorylation of TBK” and the “pro-inflammatory cytokine gene expression” value [3] was “induce the pro-inflammatory cytokine genes”. For the same molecule, the “effect on tumor growth, single agent” value (4T1 tumor) was “more significant tumor-suppressive effect” and the “enhancement of radiotherapy of glioma” value (glioma) was “significantly enhanced radiotherapy of glioma”.

With `O=c1cc(-c2cccc3c2Sc2ccccc2S3)oc(N2CCOCC2)c1` [Ku55933] the “expression of ISGs” value (ISGs; 10 μM Ku55933 for 9 hours (IFIT1, CCL5), FIG. 90) was “induced expression of ISGs”, the “phosphorylation of TBK” value (p-TBK [2]; Ku55933 indicated concentrations 6 hours, or 5 μM at indicated times, FIGS. 88, 89) was “induced increased phosphorylation of TBK” and the “pro-inflammatory cytokine gene expression” value [3] was “induce the pro-inflammatory cytokine genes”. For the same molecule, the “expression of p-TBK” value (p-TBK [4]) was “induced expression of p-TBK”.

Reference: patent publication US12558351B2, “Compositions and methods for enhancing cancer immune checkpoint therapy” (DUKE UNIVERSITY, priority 2019, dated 2026)
